Like-named read-outs stand apart in the source and are kept apart here.

One may read the melting point as the temperature, or range, at which the solid turns liquid.

The target in one data set is cdk2/cyclinE (Homo sapiens, UniProt P24941). The experiment in a line: Cyclin-Dependent Kinase Assay cdk2/cyclinE.
The target of the next data set is cdc2/cyclinB (Homo sapiens, UniProt P06493). Kind of data set: Cyclin-Dependent Kinase Assay cdc2/cyclinB.
The target in the next data set is Cdk5/p25 (Homo sapiens, UniProt Q00535). Kind of data set: Cyclin-Dependent Kinase 5 High Throughput Screening (cdk5-HTS) Assay. To be noted: high throughput screen. The class given is biochemical. The procedure, abridged: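 IC50 determined from 33P incorporation into GST-RbCOOH captured on glutathione plates and read by scintillation counting. Reaction: 1.0 μg/mL Cdk5/p25, 20 μM [γ33P]ATP, pH 7.4 Tris buffer with MgCl2 and DTT, 30 min at room temperature, stopped with EDTA.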

Another data set addresses cdk2/cyclinA (Homo sapiens, UniProt P24941). The experiment in a line: Cyclin-Dependent Kinase Assay cdk2/cyclinA.
The next data set deals with cdk4/D (Homo sapiens, UniProt P11802). The experiment in a line: Cyclin-Dependent Kinase 4 (cdk4) Assay. Particulars: read-out: cdk4/D IC50. The class given is biochemical.
Chain of cdk4/D (P11802 whole entry): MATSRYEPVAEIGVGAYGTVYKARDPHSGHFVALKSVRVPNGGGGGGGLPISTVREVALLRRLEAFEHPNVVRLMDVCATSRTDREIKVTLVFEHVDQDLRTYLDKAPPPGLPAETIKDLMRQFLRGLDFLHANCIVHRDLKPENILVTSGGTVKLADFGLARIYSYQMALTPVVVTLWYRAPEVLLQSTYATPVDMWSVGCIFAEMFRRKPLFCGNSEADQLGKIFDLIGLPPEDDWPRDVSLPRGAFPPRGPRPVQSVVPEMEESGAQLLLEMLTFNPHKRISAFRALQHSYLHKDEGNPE
Chain of cdk4/D (P24385 whole entry, further chain): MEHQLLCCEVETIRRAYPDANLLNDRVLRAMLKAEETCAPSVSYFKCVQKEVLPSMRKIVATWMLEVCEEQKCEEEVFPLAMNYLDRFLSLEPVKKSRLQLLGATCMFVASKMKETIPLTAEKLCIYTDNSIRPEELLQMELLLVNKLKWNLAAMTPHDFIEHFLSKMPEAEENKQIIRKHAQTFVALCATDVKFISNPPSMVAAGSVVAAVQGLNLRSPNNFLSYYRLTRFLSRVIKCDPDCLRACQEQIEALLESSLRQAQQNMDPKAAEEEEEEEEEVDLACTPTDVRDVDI

Chain of cdc2/cyclinB (P06493 whole entry): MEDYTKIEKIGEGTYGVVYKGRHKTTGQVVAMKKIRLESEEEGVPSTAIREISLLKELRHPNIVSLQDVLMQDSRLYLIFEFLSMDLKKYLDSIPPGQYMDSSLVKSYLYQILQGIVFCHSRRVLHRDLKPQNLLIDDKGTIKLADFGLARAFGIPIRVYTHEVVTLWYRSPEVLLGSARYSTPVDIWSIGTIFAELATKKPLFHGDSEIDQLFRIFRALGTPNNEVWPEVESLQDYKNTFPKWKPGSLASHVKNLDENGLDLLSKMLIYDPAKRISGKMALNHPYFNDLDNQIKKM
Chain of cdc2/cyclinB (P14635 whole entry, further chain): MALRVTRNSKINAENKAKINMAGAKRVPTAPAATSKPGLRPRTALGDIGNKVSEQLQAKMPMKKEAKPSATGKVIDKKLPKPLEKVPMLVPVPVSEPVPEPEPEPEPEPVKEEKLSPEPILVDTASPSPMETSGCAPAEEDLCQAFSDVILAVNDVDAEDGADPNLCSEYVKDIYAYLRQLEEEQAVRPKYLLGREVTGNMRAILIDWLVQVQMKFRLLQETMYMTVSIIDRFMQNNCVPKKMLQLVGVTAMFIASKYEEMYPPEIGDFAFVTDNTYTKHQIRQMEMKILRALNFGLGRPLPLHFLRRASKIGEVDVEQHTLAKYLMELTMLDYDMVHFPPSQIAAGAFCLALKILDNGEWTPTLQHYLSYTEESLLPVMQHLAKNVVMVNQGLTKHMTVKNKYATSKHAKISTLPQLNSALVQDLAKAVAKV
Experimental for cdk2/cyclinE: Cyclin-Dependent Kinase Assays (cdk2/cyclinE, cdk2/cyclinA, cdc2/cyclinB)
All components except the ATP were added to the wells, and the plate was placed on a plate mixer for 2 minutes. The reaction was begun by addition of [^32P]ATP, and the plate was incubated at 25° C. for 15 minutes. The reaction was terminated by addition of 0.1 mL of 20% TCA. The plate was kept at 4° C. for at least 1 hour to allow the substrate to precipitate. The wells were then washed five times with 0.2 mL of 10% TCA and ^32p incorporation determined with a beta plate counter (Wallac Inc., Gaithersburg, Md.).

Turning to `CCCn1c(=O)ccc2cnc(Nc3ccccc3)nc21` [Example 41, 2-Phenylamino-8-propyl-8H-pyrido[2,3-d]pyrimidin-7-one], the melting point was 163 to 164 °C.

The molecule `CC(C)n1c(=O)ccc2cnc(Nc3ccccc3)nc21` [Example 43, 8-Isopropyl-2-phenylamino-8H-pyrido[2,3-d]pyrimidin-7-one] returned a melting point of 170 to 171 °C.

In turn, `CCn1c(=O)ccc2cnc(NCc3ccccc3)nc21` [Example 44, 2-Benzylamino-8-ethyl-8H-pyrido[2,3-d]pyrimidin-7-one] displayed a melting point of 96 to 97 °C.

`CCn1c(=O)ccc2cnc(NC(C)(C)C)nc21` [Example 46, 2-tert-Butylamino-8-ethyl-8H-pyrido[2,3-d]pyrimidin-7-one]: the melting point fell in the range of 103 to 104 °C.

Consider `CCn1c(=O)ccc2cnc(NC3CCCCC3)nc21` [Example 48, 2-Cyclohexylamino-8-ethyl-8H-pyrido[2,3-d]pyrimidin-7-one], for which the melting point is 135 to 136 °C.

Regarding `CCn1c(=O)ccc2cnc(Nc3ccc(-c4ccccc4)cc3)nc21` [Example 49, 2-(Biphenyl-4-ylamino)-8-ethyl-8H-pyrido[2,3-d]pyrimidin-7-one], the melting point lay in the range of 207 to 208 °C.

Consider `COc1ccc(Cn2c(=O)ccc3cnc(Nc4ccccc4)nc32)cc1` [Example 58, 8-(4-Methoxybenzyl)-2-phenylamino-8H-pyrido[2,3-d]pyrimidin-7-one], for which the melting point is 215 to 216 °C.

Consider `CCN(CC)CCOc1ccc(Nc2ncc3ccc(=O)n(C(C)C)c3n2)cc1` [Example 59, 2-[4-(2-Diethylaminoethoxy)-phenylamino]-8-isopropyl-8H-pyrido[2,3-d]-pyrimidin-7-one], for which the melting point is 84 to 85 °C.

`Cn1c(=O)ccc2cnc(N)nc21` [Example 62, 2-Amino-8-methyl-8H-pyrido[2,3-d]pyrimidin-7-one] gave a melting point of 237 to 253 °C.

For `Cn1c(=O)ccc2cnc(NCc3ccccc3)nc21` [Example 63, 2-Benzylamino-8-methyl-8H-pyrido[2,3-d]pyrimidin-7-one], the melting point fell in the range of 160 to 162 °C.

With `CCCCNc1ncc2ccc(=O)n(C)c2n1` [Example 64, 2-Butylamino-8-methyl-8H-pyrido[2,3-d]pyrimidin-7-one], the melting point lay within 146 to 147 °C.

With `CCNc1ncc2ccc(=O)n(C)c2n1` [Example 65, 2-Ethylamino-8-methyl-8H-pyrido[2,3-d]pyrimidin-7-one], the melting point was 194 to 195 °C.

Consider `Cn1c(=O)ccc2cnc(NCCc3ccccn3)nc21` [Example 66, 8-Methyl-2-(2-pyridin-2-yl-ethylamino)-8H-pyrido[2,3-d]pyrimidin-7-one], for which the melting point is 155 to 156 °C.

As to `CCNc1nc(Nc2ccccc2)ncc1CCC(=O)OCC` [Example 68, 3-(4-Ethylamino-2-phenylamino-pyrimidin-5-yl)propionic acid ethyl ester], the melting point fell in the range of 106 to 107 °C.

As for `CCNc1nc(Nc2ccccc2)ncc1C=CC#N` [Example 72, 3-(4-Ethylamino-2-phenylamino-pyrimidin-5-yl)acrylonitrile], the melting point fell in the range of 244 to 246 °C.

In turn, `CCNc1nc(Nc2ccccc2)ncc1C(C)=CC(=O)OCC` [Example 73, 3-(4-Ethylamino-2-phenylamino-pyrimidin-5-yl)-but-2-enoic acid ethyl ester] gave a melting point of 148 to 150 °C.

`CCN(CC)c1ccc(Nc2ncc3ccc(=O)n(CC)c3n2)cc1` [Example 78, 2-(4-Diethylamino-phenylamino)-8-ethyl-8H-pyrido[2,3-d]pyrimidin-7-one]: the melting point fell in the range of 108 to 109 °C.

As for `Cc1cc(Nc2ncc3ccc(=O)n(CC4CC4)c3n2)cc(C)c1O` [Example 586, 8-Cyclopropylmethyl-2-(4-hydroxy-3,5-dimethyl-phenylamino)-8H-pyrido[2,3-d]pyrimidin-7-one], the IC50 on cdk2/cyclinE (cdk2/E IC50) was 200 nM; on cdc2/cyclinB it was 120 nM; against Cdk5/p25, 170 nM; at cdk2/cyclinA (cdk2/A IC50) it was 170 nM; at cdk4/D, 490 nM.

Take `O=c1ccc2cnc(Nc3ccc4c(c3)CCC4)nc2n1CC1CC1` [Example 587, 8-Cyclopropylmethyl-2-(indan-5-ylamino)-8H-pyrido[2,3-d]pyrimidin-7-one]: the IC50 on cdk2/cyclinE (cdk2/E IC50) worked out at 81 nM; against cdc2/cyclinB it was 360 nM; against Cdk5/p25, 160 nM; against cdk2/cyclinA (cdk2/A IC50), 440 nM; at cdk4/D, 200 nM.

Turning to `O=c1ccc2cnc(Nc3cc(F)c(F)c(F)c3)nc2n1CC1CC1` [Example 588, 8-Cyclopropylmethyl-2-(3,4,5-trifluoro-phenylamino)-8H-pyrido[2,3-d]pyrimidin-7-one], the IC50 against cdk2/cyclinE (cdk2/E IC50) amounted to 100 nM; against cdc2/cyclinB, 710 nM; against Cdk5/p25, 260 nM; at cdk2/cyclinA (cdk2/A IC50) it was 670 nM; at cdk4/D, 2600 nM.

As to `Cc1ccc(Nc2ncc3ccc(=O)n(CC4CC4)c3n2)cc1NS(C)(=O)=O` [Example 592, N-[5-(8-Cyclopropylmethyl-7-oxo-7,8-dihydro-pyrido[2,3-d]pyrimidin-2-ylamino)-2-methyl-phenyl]-methanesulfonamide], the IC50 against cdk2/cyclinE (cdk2/E IC50) came out at 71 nM; on cdc2/cyclinB, 430 nM; against Cdk5/p25, 230 nM; against cdk2/cyclinA (cdk2/A IC50) it was 310 nM; on cdk4/D it was 200 nM.

Take `O=c1ccc2cnc(Nc3ccc4[nH]ccc4c3)nc2n1CC(F)(F)F` [Example 593, 2-(1H-Indol-5-ylamino)-8-(2,2,2-trifluoro-ethyl)-8H-pyrido[2,3-d]pyrimidin-7-one]: the IC50 was found to be 1370 nM at cdk2/cyclinE (cdk2/E IC50); 960 nM on cdc2/cyclinB; 695 nM on Cdk5/p25; 2700 nM against cdk2/cyclinA (cdk2/A IC50); 905 nM on cdk4/D.

Regarding `O=c1ccc2cnc(Nc3ccc4nn[nH]c4c3)nc2n1CC(F)(F)F` [Example 595, 2-(1H-Benzotriazol-5-ylamino)-8-(2,2,2-trifluoro-ethyl)-8H1-pyrido[2,3-d]pyrimidin-7-one], the IC50 came out at 510 nM against cdk2/cyclinE (cdk2/E IC50); 2000 nM against cdc2/cyclinB; 155 nM at Cdk5/p25; 1450 nM against cdk2/cyclinA (cdk2/A IC50); 2000 nM at cdk4/D.

On to `O=c1ccc2cnc(Nc3ccc(O)c(Cl)c3)nc2n1CC(F)(F)F` [Example 597, 2-(3-Chloro-4-hydroxy-phenylamino)-8-(2,2,2-trifluoro-ethyl)-8H-pyrido[2,3-d]pyrimidin-7-one], for which the IC50 against cdk2/cyclinE (cdk2/E IC50) was found to be 317 nM; at cdc2/cyclinB, 435 nM; at Cdk5/p25, 250 nM; against cdk2/cyclinA (cdk2/A IC50), 1010 nM; on cdk4/D it was 2000 nM.

Turning to `COc1ccc(Nc2ncc3ccc(=O)n(CC(F)(F)F)c3n2)cc1OC` [Example 600, 2-(3,4-Dimethoxy-phenylamino)-8-(2,2,2-trifluoro-ethyl)-8H-pyrido[2,3-d]pyrimidin-7-one], the IC50 on cdk2/cyclinE (cdk2/E IC50) was 970 nM; against cdc2/cyclinB it was 905 nM; against Cdk5/p25 it was 124 nM; on cdk2/cyclinA (cdk2/A IC50) it was 1600 nM; at cdk4/D, 1780 nM.

For `O=c1ccc2cnc(Nc3ccccc3)nc2n1CC(F)(F)F` [Example 601, 2-Phenylamino-8-(2,2,2-trifluoro-ethyl)-8H-pyrido[2,3-d]pyrimidin-7-one], the IC50 against cdk2/cyclinE (cdk2/E IC50) was 1200 nM; against cdc2/cyclinB, 1650 nM; at Cdk5/p25 it was 400 nM; against cdk2/cyclinA (cdk2/A IC50), 2850 nM; at cdk4/D, 1450 nM.

With `COc1ccc(Nc2ncc3ccc(=O)n(C4CCCCC4)c3n2)cc1OC` [Example 613, 8-Cyclohexyl-2-(3,4-dimethoxy-phenylamino)-8H-pyrido[2,3-d]pyrimidin-7-one], the IC50 was found to be 36.3 nM on cdk2/cyclinE (cdk2/E IC50); 101 nM against cdc2/cyclinB; 63 nM against Cdk5/p25; 152 nM at cdk2/cyclinA (cdk2/A IC50); 415 nM at cdk4/D.

Take `Cn1c(=O)ccc2cnc(Nc3ccc4[nH]ccc4c3)nc21` [Example 614, 2-(1H-Indol-5-ylamino)-8-methyl-8H-pyrido[2,3-d]pyrimidin-7-one]: the IC50 is 917 nM on cdk2/cyclinE (cdk2/E IC50); 1430 nM at cdc2/cyclinB; 615 nM against Cdk5/p25; 2000 nM against cdk2/cyclinA (cdk2/A IC50); 1350 nM at cdk4/D.

As for `Cn1c(=O)ccc2cnc(Nc3ccc(NC(=O)OC(C)(C)C)cc3)nc21` [Example 615, [4-(8-Methyl-7-oxo-7,8-dihydro-pyrido[2,3-d]pyrimidin-2-ylamino)-phenyl]-carbamic acid tert-butyl ester], the IC50 at cdk2/cyclinE (cdk2/E IC50) is 1530 nM; against cdc2/cyclinB it was 1760 nM; against Cdk5/p25, 1140 nM; at cdk2/cyclinA (cdk2/A IC50), 3600 nM; on cdk4/D, 3000 nM.

Consider `CCn1c(=O)ccc2cnc(Nc3ccc4[nH]ccc4c3)nc21` [Example 621, 8-Ethyl-2-(1H-indol-5-ylamino)-8H-pyrido[2,3-d]pyrimidin-7-one], for which the IC50 at cdk2/cyclinE (cdk2/E IC50) is 400 nM; against cdc2/cyclinB, 540 nM; at Cdk5/p25 it was 250 nM; on cdk2/cyclinA (cdk2/A IC50), 925 nM; at cdk4/D it was 230 nM.

In the case of “[4-(7-Oxo-8-propyl-7,8-dihydro-pyrido[2,3-d]pyrimidin-2-ylamino)-phenyl]-carbamic acid tert-butyl ester [Example 326]”, the IC50 on cdk2/cyclinE (read-out: cdk2/E IC50) amounted to 820 nM; at cdc2/cyclinB (read-out: cdk1/B IC50), 995 nM; at Cdk5/p25 it was 460 nM; at cdk2/cyclinA (read-out: cdk2/A IC50), 2450 nM; on cdk4/D, 2100 nM.

The record behind these values is US20040224958A1, “Pyridopyrimidinone derivatives for treatment of neurodegenerative disease” (priority 2000, published 2004).
